Patent US20090163515A1, “Compounds Which Bind to the Active Site of Protein Kinase Enzymes” (Biofocus Discovery Ltd., priority 2003, published 2009)

test system: ROK; assay: ROK activity assay; assay type: biochemical; design: key: +: active; ++: more active; +++: very active; conditions: assays conducted at 1-100 μM

**Q.** `Oc1ccc(-c2cncc(NCc3ccc4ccccc4c3)c2)cc1` [4-{5-[(Naphthalen-2-ylmethyl)-amino]-pyridin-3-yl}-phenol] was tested. Which ROK activity did it give?
**A.** +

**Q.** Which ROK activity does the source give for `Oc1ccc(-c2cncc(NCC3CCCN3)c2)cc1` (stereo not drawn) [4-{5-[(Pyrrolidin-2-ylmethyl)-amino]-pyridin-3-yl}-phenol] here?
**A.** ++

**Q.** `COc1ccc(CNc2cncc(-c3ccc(O)cc3)c2)cc1O` [5-{[5-(4-Hydroxy-phenyl)-pyridin-3-ylamino]-methyl}-2-methoxy-phenol] was tested. Which ROK activity did it give?
**A.** ++

**Q.** Which ROK activity does the source give for `Oc1ccc(-c2cncc(NCc3cc(O)cc(O)c3)c2)cc1` [5-{[5-(4-Hydroxy-phenyl)-pyridin-3-ylamino]-methyl}-benzene-1,3-diol] here?
**A.** ++

**Q.** `c1ccc2ncc(-c3cnc(NCCc4ccncc4)cn3)cc2c1` [(2-Pyridin-4-yl-ethyl)-(5-quinolin-3-yl-pyrazin-2-yl)-amine] was tested. Which ROK activity did it give?
**A.** ++

**Q.** `COc1cc(-c2cnc(NCCc3ccncc3)cn2)cc(OC)c1OC` [(2-Pyridin-4-yl-ethyl)-[5-(3,4,5-trimethoxy-phenyl)-pyrazin-2-yl]-amine] was tested. Which ROK activity did it give?
**A.** ++

**Q.** `FC(F)(F)Oc1cccc(-c2cnc(NCCc3ccncc3)cn2)c1` [(2-Pyridin-4-yl-ethyl)-[5-(3-trifluoromethoxy-phenyl)-pyrazin-2-yl]-amine] was tested. Which ROK activity did it give?
**A.** ++

**Q.** Which ROK activity does the source give for `FC(F)(F)Oc1ccc(-c2cnc(NCCc3ccncc3)cn2)cc1` [(2-Pyridin-4-yl-ethyl)-[5-(4-trifluoromethoxy-phenyl)-pyrazin-2-yl]-amine] here?
**A.** ++

**Q.** How did the ROK activity turn out when `Clc1cccc(CNc2cnc(-c3ccncc3)cn2)c1` [(3-Chloro-benzyl)-(5-pyridin-4-yl-pyrazin-2-yl)-amine] was run?
**A.** ++

**Q.** `COc1ccc(CNc2cnc(-c3ccncc3)cn2)cc1` [(4-Methoxy-benzyl)-(5-pyridin-4-yl-pyrazin-2-yl)-amine] was tested. Which ROK activity did it give?
**A.** +

**Q.** `Oc1cccc(CNc2cncc(-c3cccc(O)c3)c2)c1` [(5-(3′-hydroxy-phenyl)-pyridin-3-yl)-(3-hydroxy-benzyl)-amine] was tested. Which ROK activity did it give?
**A.** +

**Q.** `Oc1ccc(-c2cncc(NCc3cccc(O)c3)c2)cc1` [(5-(4′-hydroxy-phenyl)-pyridin-3-yl)-(3-hydroxy-benzyl)-amine] was tested. Which ROK activity did it give?
**A.** +++

**Q.** With `c1cc(CCNc2cnc(-c3ccc4c(c3)OCO4)cn2)ccn1` [(5-Benzo[1,3]dioxol-5-yl-pyrazin-2-yl)-(2-pyridin-4-yl-ethyl)-amine] as the molecule, how does the ROK activity read?
**A.** ++

**Q.** With `c1ccc2sc(-c3cnc(NCCc4ccncc4)cn3)cc2c1` [(5-Benzo[b]thiophen-2-yl-pyrazin-2-yl)-(2-pyridin-4-yl-ethyl)-amine] as the molecule, how does the ROK activity read?
**A.** ++

**Q.** For `c1ccc2oc(-c3cnc(NCCc4ccncc4)cn3)cc2c1` [(5-Benzofuran-2-yl-pyrazin-2-yl)-(2-pyridin-4-yl-ethyl)-amine], which ROK activity is on record?
**A.** ++

**Q.** For `c1cncc(CCNc2cnc(-c3ccc4ccccc4c3)cn2)c1` [(5-Naphthalen-2-yl-pyrazin-2-yl)-(2-pyridin-3-yl-ethyl)-amine], which ROK activity is on record?
**A.** +

**Q.** With `c1ccc2cc(-c3cnc(NCCc4ccncc4)cn3)ccc2c1` [(5-Naphthalen-2-yl-pyrazin-2-yl)-(2-pyridin-4-yl-ethyl)-amine] as the molecule, how does the ROK activity read?
**A.** ++

**Q.** Which ROK activity does the source give for `c1csc(CNc2cnc(-c3ccncc3)cn2)c1` [(5-Pyridin-4-yl-pyrazin-2-yl)-thiophen-2-ylmethyl-amine] here?
**A.** ++

**Q.** Which ROK activity does the source give for `c1cc(-c2cnc(NCc3ccc4c(c3)OCO4)cn2)ccn1` [Benzo[1,3]dioxol-5-ylmethyl-(5-pyridin-4-yl-pyrazin-2-yl)-amine] here?
**A.** ++

**Q.** With `c1cc(-c2cncc(NCc3ccc4c(c3)OCO4)c2)ccn1` [Benzo[1,3]dioxol-5-ylmethyl-[3,4′]bipyridinyl-5-yl-amine] as the molecule, how does the ROK activity read?
**A.** ++

**Q.** Which ROK activity does the source give for `CN(C)CCNC(=O)c1cccc(-c2cncc(Nc3ccc4ccccc4c3)c2)c1` [N-(2-Dimethylamino-ethyl)-3-[5-(naphthalen-2-ylamino)-pyridin-3-yl]-benzamide] here?
**A.** +

**Q.** How did the ROK activity turn out when `O=C(NCCO)c1cccc(-c2cnc(NCCc3ccncc3)cn2)c1` [N-(2-Hydroxy-ethyl)-3-[5-(2-pyridin-4-yl-ethylamino)-pyrazin-2-yl]-benzamide] was run?
**A.** +

**Q.** Which ROK activity does the source give for `COc1ccc(NC(=O)c2ccc(-c3cnc(NCCc4ccncc4)cn3)cc2)cc1` [N-(4-Methoxy-phenyl)-4-[5-(2-pyridin-4-yl-ethylamino)-pyrazin-2-yl]-benzamide] here?
**A.** ++

**Q.** With `CC(=O)Nc1cccc(-c2cncc(NCc3cccc(O)c3)c2)c1` [N-{3-[5-(3-Hydroxy-benzylamino)-pyridin-3-yl]-phenyl}-acetamide] as the molecule, how does the ROK activity read?
**A.** +

**Q.** `CC(=O)Nc1ccc(-c2cncc(NCc3cccc(O)c3)c2)cc1` [N-{4-[5-(3-Hydroxy-benzylamino)-pyridin-3-yl]-phenyl}-acetamide] was tested. Which ROK activity did it give?
**A.** +

**Q.** `Clc1ccc(CNc2cncc(-c3ccncc3)c2)cc1Cl` [[3,4′]Bipyridinyl-5-yl-(3,4-dichloro-benzyl)-amine] was tested. Which ROK activity did it give?
**A.** ++

**Q.** For `Fc1ccc(CNc2cncc(-c3ccncc3)c2)cc1F` [[3,4′]Bipyridinyl-5-yl-(3,4-difluoro-benzyl)-amine], which ROK activity is on record?
**A.** ++

**Q.** How did the ROK activity turn out when `Brc1cccc(Nc2cncc(-c3ccncc3)c2)c1` [[3,4′]Bipyridinyl-5-yl-(3-bromo-phenyl)-amine] was run?
**A.** ++

**Q.** For `Clc1cccc(CNc2cncc(-c3ccncc3)c2)c1` [[3,4′]Bipyridinyl-5-yl-(3-chloro-benzyl)-amine], which ROK activity is on record?
**A.** ++

**Q.** For `Clc1cccc(Nc2cncc(-c3ccncc3)c2)c1` [[3,4′]Bipyridinyl-5-yl-(3-chloro-phenyl)-amine], which ROK activity is on record?
**A.** ++

**Q.** Which ROK activity does the source give for `O=[N+]([O-])c1cccc(Nc2cncc(-c3ccncc3)c2)c1` [[3,4′]Bipyridinyl-5-yl-(3-nitro-phenyl)-amine] here?
**A.** ++

**Q.** How did the ROK activity turn out when `FC(F)(F)Oc1cccc(CNc2cncc(-c3ccncc3)c2)c1` [[3,4′]Bipyridinyl-5-yl-(3-trifluoromethoxy-benzyl)-amine] was run?
**A.** ++

**Q.** How did the ROK activity turn out when `Brc1ccc(CNc2cncc(-c3ccncc3)c2)cc1` [[3,4′]Bipyridinyl-5-yl-(4-bromo-benzyl)-amine] was run?
**A.** +++

**Q.** For `Fc1cc(CNc2cncc(-c3ccncc3)c2)ccc1Cl` [[3,4′]Bipyridinyl-5-yl-(4-chloro-3-fluoro-benzyl)-amine], which ROK activity is on record?
**A.** +++

**Q.** For `Clc1ccc(CNc2cncc(-c3ccncc3)c2)cc1` [[3,4′]Bipyridinyl-5-yl-(4-chloro-benzyl)-amine], which ROK activity is on record?
**A.** +++

**Q.** Which ROK activity does the source give for `COc1ccc(CNc2cncc(-c3ccncc3)c2)cc1` [[3,4′]Bipyridinyl-5-yl-(4-methoxy-benzyl)-amine] here?
**A.** +++

**Q.** For `c1cc(-c2cncc(NCC3CCCCC3)c2)ccn1` [[3,4′]Bipyridinyl-5-yl-cyclohexylmethyl-amine], which ROK activity is on record?
**A.** ++

**Q.** `c1cc(-c2cncc(NCc3ccoc3)c2)ccn1` [[3,4′]Bipyridinyl-5-yl-furan-3-ylmethyl-amine] was tested. Which ROK activity did it give?
**A.** ++

**Q.** How did the ROK activity turn out when `c1ccc2cc(CNc3cncc(-c4ccncc4)c3)ccc2c1` [[3,4′]Bipyridinyl-5-yl-naphthalen-2-ylmethyl-amine] was run?
**A.** ++

**Q.** Which ROK activity does the source give for `c1cc(-c2cncc(NCC3CCCN3)c2)ccn1` (stereo not drawn) [[3,4′]Bipyridinyl-5-yl-pyrrolidin-2-ylmethyl-amine] here?
**A.** +

**Q.** With `COc1ccc(-c2cnc(NCCc3ccncc3)cn2)cc1OC` [[5-(3,4-Dimethoxy-phenyl)-pyrazin-2-yl]-(2-pyridin-4-yl-ethyl)-amine] as the molecule, how does the ROK activity read?
**A.** ++

**Q.** For `Fc1ccc(-c2cnc(NCCc3ccncc3)cn2)cc1Cl` [[5-(3-Chloro-4-fluoro-phenyl)-pyrazin-2-yl]-(2-pyridin-4-yl-ethyl)-amine], which ROK activity is on record?
**A.** +

**Q.** `COc1ccc(-c2cnc(NCCc3ccncc3)cn2)cc1` [[5-(4-Methoxy-phenyl)-pyrazin-2-yl]-(2-pyridin-4-yl-ethyl)-amine] was tested. Which ROK activity did it give?
**A.** ++

**Q.** For `CSc1ccc(-c2cnc(NCCc3ccncc3)cn2)cc1` [[5-(4-Methylsulfanyl-phenyl)-pyrazin-2-yl]-(2-pyridin-4-yl-ethyl)-amine], which ROK activity is on record?
**A.** ++

**Q.** `OCc1ccc(-c2cnc(NCCc3ccncc3)cn2)cc1` [{4-[5-(2-Pyridin-4-yl-ethylamino)-pyrazin-2-yl]-phenyl}-methanol] was tested. Which ROK activity did it give?
**A.** +
